Test results from patent US7211545B2, “Imidazo[1,2-a]pyrimidine and fungicidal compositions containing thereof” (Sumitomo Chemical Company, Limited, priority 2001, dated 2007).

Columns and labels:
Botrytis cinerea = test: Test Example 3: preventive efficacy against Botrytis cinerea on cucumber (comparison with Reference Compound A); type: in vivo; conditions: 500 ppm flowable, foliar spray on cucumber cotyledons, inoculated after spraying, 12° C. humid, 4 days
Experimental: The control effect of the present compound was evaluated by visually observing the area of a lesion on a plant under test in investigation and comparing the area of a lesion in a non-treatment group and the area of a lesion in a group treated with the present compound. Sand loam was compacted in plastic pots, cucumbers (Ochiai Aonagafushinari) were seeded and grown in a greenhouse for 10 days. Then, each of Reference Compound A and Compound 182 was formulated into a flowable formulation according to Formulation Example 6, then, diluted with water to provide prescribed concentration (500 ppm), and sprayed over the foliage so as to give sufficient adhesion on the surface of cucumber cotyledons. After spraying, the plants were air-dried, and PDA medium containing spores of Botrytis cinerea were attached on cucumber cotyledons. After the inoculation, the cucumbers were placed in a humid condition at 12° C. for 4 days, and the control effect was examined. As a result, areas of lesions on the plant treated with Reference Compound A were in the range of 75% to 100% on those of the untreated groups, on the other hand, areas of lesions on the plant treated with Compound 182 was not greater than 1% of areas of lesions on those of the untreated groups.

Sphaerotheca fuliginea = test: Test Example 4: preventive efficacy against Sphaerotheca fuliginea on cucumber (comparison with Reference Compound A); type: in vivo; conditions: 500 ppm flowable, foliar spray on cucumber leaves, inoculated after spraying, 23° C., 12 days
Experimental: The control effect of the present compound was evaluated by visually observing the area of a lesion on a plant under test in investigation and comparing the area of a lesion in a non-treatment group and the area of a lesion in a group treated with the present compound. Sand loam was compacted in plastic pots, cucumbers (Ochiai Aonagafushinari) were seeded and grown in a greenhouse for 12 days. Then, each of Reference Compound A and Compound 182 was formulated into flowable formulations according to Formulation Example 6, then, diluted with water to provide prescribed concentration (500 ppm), and sprayed over the foliage so as to give sufficient adhesion on the surface of cucumber leaves. After spraying, the plants were air-dried, and inoculated with spores of Sphaerotheca fuliginea. After the inoculation, the cucumbers were placed at 23° C. for 12 days, and the control effect was examined. As a result, areas of lesions on the plant treated with Reference Compound A were in the range of 75% to 100% on those of the untreated groups, on the other hand, areas of lesions on the plant treated with Compound 182 was not greater than 1% of infested areas on those of the untreated groups.

| SMILES | melting point | areas of lesions on treated plant as % of areas of lesions on untreated groups (Botrytis cinerea) | areas of lesions on treated plant as % of infested areas on untreated groups (Sphaerotheca fuliginea) |
| --- | --- | --- | --- |
| CC1CCN(c2c(-c3c(F)cc(F)cc3F)c(Cl)nc3nccn23)CC1 [Compound 55, 5-(4-methylpiperidin-1-yl)-6-(2,4,6-trifluorophenyl)-7-chloroimidazo[1,2-a]pyrimidine] | 200.8 °C |  |  |
| Cc1cc(C)n(-c2c(-c3c(F)cc(F)cc3F)c(Cl)nc3nccn23)n1 [Compound 89, 5-(3,5-dimethylpyrazol-1-yl)-6-(2,4,6-trifluorophenyl)-7-chloroimidazo[1,2-a]pyrimidine] | 150.4 °C |  |  |
| CCCN(CCC)c1c(-c2c(F)cc(F)cc2F)c(Cl)nc2nccn12 [Compound 8, 5-(di-n-propylamino)-6-(2,4,6-trifluorophenyl)-7-chloroimidazo[1,2-a]pyrimidine] | 95.4 °C |  |  |

Continued, in another order:

| melting point | SMILES | areas of lesions on treated plant as % of areas of lesions on untreated groups (Botrytis cinerea) | areas of lesions on treated plant as % of infested areas on untreated groups (Sphaerotheca fuliginea) |
| --- | --- | --- | --- |
| 183.8 °C | CC1CCN(c2c(-c3c(F)cccc3Cl)c(Cl)nc3nccn23)CC1 [Compound 182, 5-(4-methylpiperidin-1-yl)-6-(2-chloro-6-fluorophenyl)-7-chloroimidazo[1,2-a]pyrimidine] | ≤ 1% | ≤ 1% |
| 144.5 °C | Cc1nc2nccn2c(N2CCC(C)CC2)c1-c1c(F)cccc1Cl [Compound 428, 5-(4-methylpiperidin-1-yl)-6-(2-chloro-6-fluorophenyl)-7-methylimidazo[1,2-a]pyrimidine] |  |  |
